Experiment: recombinant UMI read abundance after kanamycin selection (control-corrected) (log10(CPM+1)); higher = more efficient recombination; extreme values may be limits of the assay; sequences stand for … in AGTGCAGAGAAAATCGGCCAGTTTTCTCTGCCTGCAGTCCGCATGCCGTGGGACCCCTTGGGTTCTAACCTGTTGCCTAGATTTATGCAGCGGACTGCCTTTCTCCCAAAGTGATAAACCGG…AGGTTGGTTTCACT; site = the 11-nt donor
Procedure, shortened: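 Values, expressed as log10(CPM+1), derive from recombinant UMI counts converted to CPM, averaged across replicates and scaled by control-derived factors. Plating was with IPTG (0.07 mM) plus kanamycin or unselected, two replicates each. The screen pooled donor and donor-binding-loop pairs for the IS621 bridge recombinase in Escherichia coli.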
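Further: IS621 bridge recombinase in Escherichia coli cells against a fixed T5 target plasmid.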

Sequence | recombinant UMI read abundance (log10)
CGGACATCATGGACCGGTTTTCCCGGTAATCCGTATTTGCT (site CTGACATCTAG) | 1.34
CGGACATCATGGACCGGTTTTCCCGGTAATCCGTATTTGCT (site GGGACATCTAG) | 0
CGGACATCATGGACCGGTTTTCCCGGTAATCCGTATTTGCT (site TGGACATCTAG) | 0.773
CGGACGACATGGACCGGTTTTCCCGGTAATCCGTATTTGGT (site CGGACGACTAC) | 1.25
CGGACTGCATGGACCGGTTTTCCCGGTAATCCGTATTTGTT (site CGGAATCCTAA) | 0
CGGACTGCATGGACCGGTTTTCCCGGTAATCCGTATTTGTT (site CGGACTGCTAA) | 2.12
CGGACTTCATGGACCGGTTTTCCCGGTAATCCGTATTTGCT (site CGGACATCTAG) | 0.905
CGGACTTCATGGACCGGTTTTCCCGGTAATCCGTATTTGCT (site CGGACCTCTAG) | 1.61
CGGACTTCATGGACCGGTTTTCCCGGTAATCCGTATTTGCT (site CGGACGTCTAG) | 0
CGGACTTCATGGACCGGTTTTCCCGGTAATCCGTATTTGCT (site CGGACTTCTAG) | 2.17
CGGAGTACATGGACCGGTTTTCCCGGTAATCCGTATTTGTT (site CGGAATCCTAA) | 0
CGGAGTACATGGACCGGTTTTCCCGGTAATCCGTATTTGTT (site CGGAGTACTAA) | 2.14
CGGAGTCCATGGACCGGTTTTCCCGGTAATCCGTATTTGAT (site CGGAATCCTAA) | 0.0131
CGGAGTCCATGGACCGGTTTTCCCGGTAATCCGTATTTGAT (site CGGAGTCCTAT) | 1.98
CGGATATCATGGACCGGTTTTCCCGGTAATCCGTATTTGCT (site CGGAAATCTAG) | 0
CGGATATCATGGACCGGTTTTCCCGGTAATCCGTATTTGCT (site CGGACATCTAG) | 0
CGGATATCATGGACCGGTTTTCCCGGTAATCCGTATTTGCT (site CGGAGATCTAG) | 0
CGGATATCATGGACCGGTTTTCCCGGTAATCCGTATTTGCT (site CGGATATCTAG) | 1.51
CGGATGTCATGGACCGGTTTTCCCGGTAATCCGTATTTGTG (site CGGATGTCTCA) | 2.74
CGGATTCCATGGACCGGTTTTCCCGGTAATCCGTATTTGTT (site CGGAATCCTAA) | 0.00458
CGGATTCCATGGACCGGTTTTCCCGGTAATCCGTATTTGTT (site CGGACTCCTAA) | 0.0161
CGGATTCCATGGACCGGTTTTCCCGGTAATCCGTATTTGTT (site CGGAGTCCTAA) | 0.0137
CGGATTCCATGGACCGGTTTTCCCGGTAATCCGTATTTGTT (site CGGATTCCTAA) | 0.599
CGGCAGGCATGGACCGGTTTTCCCGGTAATCCGTATTTGAT (site CGGCAGGCTAT) | 2.21
CGGCATCCATGGACCGGTTTTCCCGGTAATCCGTATTTGGT (site CGGAATCCTAA) | 0
CGGCATCCATGGACCGGTTTTCCCGGTAATCCGTATTTGGT (site CGGCATCCTAC) | 0.00636
CGGCATCCATGGACCGGTTTTCCCGGTAATCCGTATTTGTT (site CGGAATCCTAA) | 0
CGGCATCCATGGACCGGTTTTCCCGGTAATCCGTATTTGTT (site CGGCATCCTAA) | 0.467
CGGCATCCATGGACCGGTTTTCCCGGTAATCCGTATTTGTT (site CGGGATCCTAA) | 0.0034

Source: the supplement of paper PMC11208160
